Experimental data: patent US11001820B2, “Delivery of therapeutic agents by a collagen binding protein” (THE BOARD OF TRUSTEES OF THE UNIVERSITY OF ARKANSAS, priority 2011, dated 2021)
Each block holds one compound with its values, some of them ahead of it.

Assays:
[1] = Circular dichroism thermal denaturation of collagenous peptides; type: physicochemical; settings: triple helix thermostability by [θ]225, 0.3° C./min, 1 mg/ml in water
Experimental: The triple helical conformation and the stability of the collagenous peptides were verified using CD spectroscopy (See FIGS. 3 and 4). CD spectra were recorded with a J-820 CD spectropolarimeter (JASCO Co., Hachioji, Japan) equipped with a Peltier thermo controller, using a 0.5-mm quartz cuvette and connected to a data station for signal averaging. All peptide samples were dissolved in water (1 mg/ml), and stored at 4° C. for 24 h. The spectra are reported in terms of ellipticity units per mole of peptide residues [θ]mrw. Thermostability of the triple helix was monitored by the [θ]225 values of each peptide with increasing temperature at the rate of 0.3° C./min.

C57BL/6J mice = experiment: Chemotherapy-induced alopecia (cyclophosphamide) in depilated mice; type: in vivo
Experimental: We compared efficacy of CBD linked PTH agonists and antagonists in chemotherapy-induced alopecia, utilizing an experimental design published by Peters, et al., for non-CBD linked PTH compounds. Peters, et al. (2001) J Invest Dermatol 117:173-178. C57BL/6J mice (Jackson Laboratories, Bar Harbor, Me.) were depilated to synchronize the hair follicles, and cyclophosphamide (CYP, 150 mg/kg) was administered on day 9 to maximize the chemotherapy-induced damage. The agonist (PTH-CBD) and the antagonist (PTH(7-33)-CBD) were administered 2 days prior to chemotherapy, and given the long-term retention of the compounds in the skin, we administered only a single dose to cover the timing of the multiple injections of PTH agonist and antagonist in the study by Peters, et. al. The administered dose of CBD-linked compounds (320 mcg/kg) is well tolerated in mice. Ponnapakkam et al. (2011) Calcif 88:511-520. […].
We followed these studies by comparing the effects of different doses of PTH-CBD in chemotherapy-induced alopecia. In these studies, we applied the injections more distally on the back and applied a gray-scale analysis to quantify the amount of hair growth. Injecting more distally in the back allows us to compare regrowth of hair after PTH-CBD treatment with less interference from the normal hair regrowth, which normally proceeds from head to tail in mice.

C57/BL6J mice = experiment: Depilation alopecia (waxing); type: in vivo
Excerpt: The agonist PTH-CBD appears to increase hair growth by increasing the number of anagen phase hair follicles. As such, there is no reason to believe that hair growth effects should be limited to the chemotherapy model. We therefore tested both PTH-CBD and antagonist compound, PTH(7-33)-CBD, after removing hair from C57/BL6J mice by waxing (FIG. 18). […] Thus, it appears that agonist therapy is acting to promote more rapid regrowth of hair by promoting more rapid transition to the anagen phase, while the antagonist inhibited hair regrowth by blocking this transition.

ovarectomized rat = experiment: Ovarectomized aged rats, single dose, sacrifice 6 months after therapy; type: in vivo; settings: 6 months after single dose 320 mcg/kg
Experimental: In this experiment, rats had their ovaries surgically removed at age 3 months. At age 9 months, rats were injected with either a single dose of PTH-CBD (320 mcg/kg) or vehicle control. Animals were sacrificed 6 months after therapy (age 15 months). […] Serum calcium was measured and there were no differences between groups (Vehicle: 13.5+/−1.1 vs. PTH-CBD: 14.3+/−1.1 mg/dl, NS). […] These findings indicate that a single injection of PTH-CBD can provide long-term suppression of endogenous PTH production, preventing the normal rise seen with age in the ovarectomized rat model, and thus may serve as a therapy for hyperparathyroidism.

mice = experiment: Chemotherapy-induced alopecia without depilation; type: in vivo
Experimental: While the depilated model of chemotherapy-induced alopecia provides a uniform model for comparison of drug effects, the depilation process is known to cause hair follicle injury, and may alter the response of the animals to the PTH-CBD administration. We therefore tested the effects of PTH-CBD in another model of chemotherapy-induced alopecia, where the animals were given 3 courses of cyclophosphamide therapy (50 mg/kg/wk), similar to the usual manner in which cancer patients might be treated. In this model, it takes much longer (4-6 months) for alopecia to develop.
In a second study, we compared the effects of PTH-CBD when given prophylactically, at the time of the first cycle of chemotherapy, vs. therapeutically, after the hair loss had developed. […] This is evident both visually and quantitatively in FIG. 17, using the same grey scale analysis used in our dose-response study.

engrafted C3H/Hej mouse = experiment: Alopecia areata model; type: in vivo
Excerpt: Alopecia Areata is a disease of patchy hair loss due to autoimmune destruction of the hair follicles. We tested the efficacy of PTH-CBD in promoting regrowth of hair in an animal model of alopecia areata, the engrafted C3H/Hej mouse. In this model, hair loss develops variably over the first 2 months of life. Shown in FIG. 19 is the results of a single dose of PTH-CBD (320 mcg/kg subcutaneous) administered into the engrafted site, the center of the back, where there was maximal hair loss. Compared to vehicle control animals, which continued to lose hair at this site, animals receiving PTH-CBD began to show regrowth of hair within the next 1-4 days.

[2] = Tissue distribution of 35S-labelled PTH-CBD by whole-body autoradiography; type: in vivo, mice; settings: subcutaneous injection, 1 hour and 12 hours
Experimental: Tissue distribution was assessed by administering ^35S-labelled PTH-CBD via subcutaneous injection, followed by whole mount frozen and whole-body autoradiography. PTH-CBD with a phosphorylation site between PTH(1-33) and the CBD was purified, activated and labeled with […] as described previously. Tamai et al. (2003) Infect Immun. 71:5371-5375. Approximately 10.8 mcg of ^35S-PTH-CBD (122 kcm/mcg) was injected subcutaneously in 7 week-old mice (32-35 g). Mice were sacrificed at 1 hour or 12 hours post-injection, and then frozen in dry ice-acetone. Frozen sections ([…]) were prepared with an autocryotome, dried at −20° C., and exposed to an image plate for 4 weeks. There appeared to be an initial distribution of ^35S-PTH-CBD to a broad area of skin around the site of injection, followed by a rapid redistribution to the skin of the entire animal, as well as to several other tissues (i.e. bone, intestine, bladder) (FIG. 11).

androgenic alopecia = settings: long-term (10 years) therapy; cited from earlier work

- Melting temperatures (Tm) [1]: 28 °C
Compound: ^11PROXYL-(POG)3PCG(POG)4

Compound: PROXYL-(POG)4POA(POG)5
- Melting temperatures (Tm) [1]: 29 °C

Compound: PROXYL-(POG)5POA(POG)4
- Melting temperatures (Tm) [1]: 28 °C

Compound: PROXYL-(POG)3POA(POG)6
- Melting temperatures (Tm) [1]: 28 °C

Compound: PROXYL-(POG)6POA(POG)3
- Melting temperatures (Tm) [1]: 27 °C

Compound: PTH-CBD: first 33 amino acids of PTH linked directly to the collagen binding domain (SEQ ID NO: 1)
- hair regrowth, gray-scale analysis (C57BL/6J mice; 100, 320, 1000 mcg/kg): dose-dependent effect
- hair follicle histology (C57BL/6J mice; H&E, day 36, 320 mcg/kg): deeper rooting and reduced melanocyte clumping
- excess hair length or growth (C57BL/6J mice; body, ears and tail): no evidence of excess hair length
- Counts of anagen VI hair follicles per high-powered field (C57BL/6J mice; day 36, 320 mcg/kg): higher number of hair follicles
- adverse effects (C57BL/6J mice; mouse, in vivo): no evidence of adverse effects
- serum calcium (C57BL/6J mice; mouse, in vivo): no effect
- hair growth (photodocumentation) (C57BL/6J mice; single dose 320 mcg/kg, 2 days prior to CYP, day 36): far more effective at stimulating hair growth than was the antagonist
- anagen eruption (C57/BL6J mice; after waxing, vehicle day 9): 7 days
- regrowth of hair (C57/BL6J mice; end of study (day 18)): more complete regrowth of hair
- Human intact PTH levels (serum levels of PTH-CBD) (ovarectomized rat): undetectable
- Rat intact PTH levels (endogenous PTH production) (ovarectomized rat): suppressed the normal increase in endogenous PTH levels
- serum calcium (ovarectomized rat; NS vs vehicle): 14.3 ± 1.1 mg/dL
- effect on hair, prophylactic vs. therapeutic dosing (mice; grey scale analysis): effective in both instances
- hair loss (mice; single dose 320 mcg/kg subcutaneous prior to first of 3 cyclophosphamide courses): did not develop hair loss
- duration of response (engrafted C3H/Hej mouse; single dose 320 mcg/kg): sustained during the 2 month course
- time to regrowth of hair (engrafted C3H/Hej mouse; single dose 320 mcg/kg subcutaneous into engrafted site): 1 to 4 days
- tissue distribution [2]: distribution and retention to skin

Compound: (POG)4POA(POG)5
- Melting temperatures (Tm) [1]: 29 °C

Compound: (POG)4POA(POG)5C-PROXYL
- Melting temperatures (Tm) [1]: 30 °C

Compound: CC(C)(C)NC(=O)[C@H]1CC[C@H]2[C@@H]3CC[C@H]4NC(=O)C=C[C@]4(C)[C@H]3CC[C@]12C [Finasteride]
- response rates (androgenic alopecia): around 50%
